Paper PMC4286001 (Journal of Clinical Pharmacy and Therapeutics, 2013)
Where two headings read alike, the source gives them in different places.

Legend:
[1] = format: in vivo, human; details: for V/F, geometric mean (%CV): single oral 45 mg tablet
[2] = Safety and tolerability of single-dose ponatinib 45 mg in healthy subjects; format: in vivo, human
[3] = cited from earlier work

Time at which maximum mean concentrations were reached ([1]; across high-fat, low-fat and fasted regimens, single 45-mg tablet)	V/F, geometric mean (%CV) ([1]; fasted)	V/F, geometric mean (%CV) ([1]; high-fat meal)	V/F, geometric mean (%CV) ([1]; low-fat meal)	Time post-dose at which maximum plasma concentration was observed ([1]; overall, fasting, high-fat and low-fat)	SMILES	Quantifiability of ponatinib in plasma ([1]; all three treatment regimens, lower limit 0·5 ng/mL)	Subjects with AEs at least possibly related to treatment, n (%) ([2]; 24 subjects, all regimens)	Severe AEs ([2]; all regimens)	Treatment-related increased lipase levels ([2]; all regimens)	Vital signs, ECG parameters or physical examinations ([2]; all regimens)	High triacylglycerol lipase levels ([2]; clinically significant abnormality)	Tolerability ([2]; healthy subjects, regardless of food intake regimen)	Clinically significant abnormalities (laboratory), number ([2]; in a total of five subjects)	Effect of food intake on PK [3]
5 to 6 h	1242 (30·0) L	1104 (28·8) L	1278 (37·6) L	~6 h	Cc1ccc(C(=O)Nc2ccc(CN3CCN(C)CC3)c(C(F)(F)F)c2)cc1C#Cc1cnc2cccnn12 [ponatinib, 3-[2-(imidazo[1,2-b]pyridazin-3-yl)ethynyl]-4-methyl-N-{4-[(4-methylpiperazin-1-yl)methyl]-3-(trifluoromethyl)phenyl}benzamide]	quantifiable through the 96-h sampling interval	10 (41·7%) subjects	no severe AEs	three	No clinically significant abnormalities	three	generally well tolerated	five	–
–	–	–	–	–	Cc1nc(Nc2ncc(C(=O)Nc3c(C)cccc3Cl)s2)cc(N2CCN(CCO)CC2)n1 [dasatinib]	–	–	–	–	–	–	–	–	unaffected by food intake
